The values below come from ChEMBL document CHEMBL1150886, “Cytotoxic compounds from the roots of Juglans mandshurica” (J Nat Prod, 1998).

The structures appear in SMILES notation. ≈ marks a conversion by molar mass, not a printed value. A value given as a limit tells only on which side of the number the result lay.

One experiment has as its system HT-29. As to the kind of experiment: Cytotoxicity against human HT-29 cells by MTT assay. The format is functional, cell-based. On the technique in general: Formazan colour is commonly taken as a measure of viable cells.
A further experiment deals with A549. As to the kind of experiment: Cytotoxicity against human A549 cells by MTT assay. The format is functional, cell-based.

Usually IC50 stands for the concentration needed to halve the response being measured. Higher therefore signals weaker potency in that assay. For `COC1=CC(=O)c2c(O)cccc2C1=O`, the figures for the IC50 in the experiment with HT-29 and in the experiment with A549 were 2.63 µg/mL (≈ 12.9 µM) and 0.08 µg/mL (≈ 0.392 µM), respectively.

Take `COc1cc2ccc1Oc1cc(ccc1O)CC(O[C@@H]1O[C@H](CO)[C@@H](O)[C@H](O)[C@H]1O)C(=O)CCCC2` (some centres undefined): the IC50 in the experiment on HT-29 and with A549 was greater than 50 µg/mL throughout.

In the experiment on HT-29, `COC(=O)C(O)(c1cc2c(c3oc([C@]4(C)C[C@@H]4C)cc(=O)c13)C(=O)c1c(ccc([C@H]3C[C@](C)(N(C)C)[C@H](O[C@@H]4C[C@H](OC)[C@H](O)[C@@H](C)O4)[C@H](C)O3)c1O)C2=O)[C@H]1O[C@H](C)[C@@H](O)[C@@H](OC)[C@@H]1O` (some centres undefined) [ALTROMYCIN B] returned an IC50 of 3.98 µg/mL (≈ 4.31 µM).

For the compound `COC(=O)c1cc(O[C@H]2O[C@@H](CO)[C@H](O)[C@@H](O)[C@@H]2O)c2c(O)cccc2c1O`, the IC50 in the experiment on HT-29 came out at 8.06 µg/mL (≈ 20.3 µM); in the experiment on A549, 7.79 µg/mL (≈ 19.7 µM).

Regarding `COc1cc(C(=O)OC[C@H]2O[C@@H](Oc3ccc(O)c4c3C(O)CCC4=O)[C@H](O)[C@@H](O)[C@@H]2O)cc(OC)c1O` (some centres undefined), the IC50 in the experiment with HT-29 and with A549 was greater than 50 µg/mL each time.
